Values of other authors in paper PMC6256190 (Biomedical Reports, 2018).

Conditions: dry extract of ginger 100 mg to 2 g, 27 healthy American participants; glucuronides were detected

- Free compound in plasma: no free
Structure (SMILES): CCCCC[C@H](O)CC(=O)CCc1ccc(O)c(OC)c1 [6-gingerol]
